Tests used:
[1] = test system: C-terminus ChREBP (bHLH/ZIP domain, Thr666); experiment: Phosphorylation/dephosphorylation and DNA binding of recombinant C-terminus ChREBP; assay type: biochemical, mouse; details: catalytic subunit of PP2A 200 units, 30° C
Excerpt: Recombinant Protein Production—Recombinant protein of mouse ChREBP was expressed in Escherichia coli by inserting the C-terminus of the ChREBP construct, encoding the amino acids 651-864 of ChREBP+His6 tag, into the BamHI and HindIII sites of the T7-based expression vector pMal-c2 (New England Bio Lab, Beverly, Mass.) to produce an N-terminal fusion with maltose-binding protein. Expressed protein was purified according to manufacturer's instruction.
Phosphorylation and Dephosphorylation of ChREBP—The reaction mixture contained, in a final volume of 0.2 ml, 50 mM Tris/Cl pH 7.5, 0.2 μM [γ-^32P]ATP (3000 Ci/mmol), 5 mM MgCl2, 0.2 mM EDTA, 2 mM dithiothreitol, and 5 mM potassium phosphate. […] At given time intervals, aliquots were removed and DNA-binding activity was determined by gel shift assay as described in Example 2. [^32P]phosphate-bound ChREBP was also determined as previously described (Kitajima and Uyeda (1983) J. Biol Chem 258, 7352-7357).
FIG. 13A is a graph showing that phosphate incorporation mediated by PKA correlates directly with DNA binding. […] At given time intervals, [^32P]phosphate incorporation (□) and DNA-binding activity (▪) were determined. Values are expressed as mean±SE. […] At given time intervals, remaining phosphorylated C-terminus ChREBP (□) and DNA-binding activity (▪) were determined. Values are expressed as mean±SE.

ChREBP [2] = experiment: Gel shift of purified ChREBP after incubation with PKA/PP2A in vitro; assay type: biochemical, rat; details: catalytic subunit of PP2A 0.025 U/μl added
Method: Gel shift assay. Gel mobility shift assays were performed as described by Liu et al. (Liu et al. (1993) J Biol Chem 268, 12787-12795). Double-stranded oligonucleotides (Table 1) were prepared by mixing equal amounts of the complementary single-stranded DNAs in 50 mM NaCl, heating to 70° C. for 15 min, and cooling to room temperature. The annealed oligonucleotides were labeled with ^32P in the presence of [γ^32P]-ATP (Amersham Pharmacia) and T4 polynucleotide kinase (New England Biolabs). Binding reactions were carried out in reaction mixture containing 20 mM Hepes (pH 7.9), 50 mM KCl, 5 mM DTT, 0.2 mM EDTA, 0.5 mM PMSF, 10% glycerol, 1 μg/μl of poly(dI-dC) (Amersham Pharmacia) and 1 μg/μl of nuclear extract. The reaction mixture was incubated at room temperature for 30 min and DNA-protein complexes were separated by electrophoresis in a 4.5% nondenaturing polyacrylamide gel.
Purified ChREBP was incubated with PKA and/or PP2A in vitro and measured by gel-shift analysis with the [^32P]-radiolabeled WT oligonucleotide. Purified ChREBP was incubated for 20 min with ATP (1 mM), PKA (0.1 U/μl), 0.2 U/μl PKI, 0.025 U/μl PP2A and the PP2A inhibitor, okadaic acid (10 nM).

AMPK = AMPK activity in hepatocytes (SAMS peptide); assay type: cell-based, rat; details: fatty acid added to high glucose medium
Method: The extract was centrifuged at 15,800·g for 15 min, and the resulting supernatant solution was transferred to a fresh tube, adjusted to 10% with polyethylene glycol 8000 ([…], France), and incubated on ice for 20 min. Following centrifugation at 15,800·g for 15 min, the pellet was suspended in 100 μl buffer A. […] A. (2000) Proc. Natl. Acad. Sci. USA. 97, 4023-4028).

cultured hepatocytes = experiment: AMP, ADP, ATP assays in cultured hepatocytes; assay type: cell-based, rat; details: hepatocytes 12 h with 150 µM fatty acid, mean±S.E., n=4
Method: Hepatocytes were scraped and collected directly into 0.5 ml of ice-cold 6% (v/v) HClO4. The concentrations of ADP and ATP were determined enzymatically in the acid-extract with methods described (Kawaguchi, T., Veech, R. L., and Uyeda, K. (2001) J. Biol. Chem. 276, 28554-28561), and the cytosolic AMP was calculated by the method of Veech et al. (Veech, R. L., Lawson, J. W., Cornell, N. W., and Krebs, H. A. (1979) J. Biol. Chem. 254, 6538-6547).
Values are expressed as mean±S.E. (n=4).

[3] = target: T1, ChREBP (Carbohydrate Response Element Binding Protein) from rat liver (UniProt Q8VIP2)
T1 sequence: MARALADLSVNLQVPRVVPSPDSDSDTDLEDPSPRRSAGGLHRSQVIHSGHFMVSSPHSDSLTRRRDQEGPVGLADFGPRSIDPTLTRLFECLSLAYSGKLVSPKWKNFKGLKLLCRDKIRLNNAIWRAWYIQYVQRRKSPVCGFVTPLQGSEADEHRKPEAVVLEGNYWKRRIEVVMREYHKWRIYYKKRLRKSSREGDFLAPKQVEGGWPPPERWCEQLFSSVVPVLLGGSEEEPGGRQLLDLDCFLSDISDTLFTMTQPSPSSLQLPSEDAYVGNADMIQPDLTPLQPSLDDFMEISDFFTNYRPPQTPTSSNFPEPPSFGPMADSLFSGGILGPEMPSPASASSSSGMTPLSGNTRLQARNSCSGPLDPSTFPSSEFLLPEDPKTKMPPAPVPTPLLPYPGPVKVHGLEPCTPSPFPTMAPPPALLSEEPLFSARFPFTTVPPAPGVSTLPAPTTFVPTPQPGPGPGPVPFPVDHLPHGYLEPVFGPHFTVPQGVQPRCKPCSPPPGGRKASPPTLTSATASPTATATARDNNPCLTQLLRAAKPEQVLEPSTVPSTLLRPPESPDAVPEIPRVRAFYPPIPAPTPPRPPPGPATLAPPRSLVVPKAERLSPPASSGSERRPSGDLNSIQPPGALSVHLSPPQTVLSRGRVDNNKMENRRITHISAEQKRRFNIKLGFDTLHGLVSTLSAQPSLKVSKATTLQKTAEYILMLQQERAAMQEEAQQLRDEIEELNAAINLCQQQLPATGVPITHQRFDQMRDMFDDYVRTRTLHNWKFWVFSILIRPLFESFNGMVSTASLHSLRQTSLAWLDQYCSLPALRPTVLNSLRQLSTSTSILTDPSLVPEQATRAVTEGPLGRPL

GFP-fused ChREBP = experiment: Subcellular localization of GFP-fused ChREBP in primary hepatocytes (confocal microscopy); assay type: cell-based, rat; details: within 10 min after addition of db-cAMP into 27.5 mM glucose medium, preliminary, n=3
Method: Determination of Subcellular Localization of ChREBP—Subcellular localization of GFP-fused WT-ChREBP or its mutants was determined using a confocal laser scanning microscope (Bio Rad, Hercules, Calif.). In order to quantitate nuclear localization of ChREBP, for each condition, 100 transfected hepatocytes from 5 independent experiments were scored in a blinded fashion as to whether the GFP-fused ChREBP was predominantly nuclear or cytoplasmic. The identity of the nucleus was verified by comparative phase-contrast microscopy. B. Results
Rat primary cultured hepatocytes were transfected with a plasmid comprising a gene encoding the GFP-fused wild type-ChREBP or NLS domain deletion mutants. […] The values are expressed as mean±SE. *P<0.05 compared to that of wild type-ChREBP.

L-PK gene = experiment: L-PK promoter luciferase reporter in ChREBP-transfected primary hepatocytes with kinase/phosphatase inhibitors or db-cAMP; details: treatment with db-cAMP, low and high glucose
Method: Primary hepatocytes were prepared from male Sprague-Dawley rats using the collagenase (Life Technologies, Inc.) perfusion method (Berry and Friend (1969) J Cell Bio […], 506-520) and plated in collagen-coated six-well tissue culture plates (Primaria Falcon, Franklin Lakes, N.J.) at a density of 1×10^6 cells/well in glucose-free Dulbecco's modified Eagle's medium (Life Technologies, Inc.) supplemented with 100 nM dexamethasone, 10 nM insulin, 100 units/ml penicillin, 100 μg/ml streptomycin and 10% dialyzed fetal bovine serum (Life Technologies, Inc.). Following attachment, synthetic liposomes were used to transfect hepatocytes with 0.5 μg of the luciferase reporter plasmid and 0.1 μg of the internal control plasmid pRL-TK. After 14 h the media was replaced by Dulbecco's modified Eagle medium supplemented with 100 nM dexamethasone, 10 nM insulin, 10% Fetal Bovine Serum and either 10 mM lactate, 5.5 mM glucose or 27.5 mM glucose. The cells were incubated for an additional 12 h prior to determination of luciferase activity using the Dual-Luciferase Reporter Assay System (Promega).
Protein Kinase and Protein Phosphatase Inhibitors—Prior to exchange to 5.5 or 27.5 mM glucose medium, transfected primary culture hepatocytes were treated for 1 h with 10 μM H-89, 500 nM cantharidic acid (Calbiochem), 5 μM KN-62 (Calbiochem), 30 μM PD98059 (Calbiochem), 50 μM Genistein, or dimethylsulfoxide vehicle.
Rat primary cultured hepatocytes were transfected a plasmid comprising a gene encoding the wild type (WT)-ChREBP. H-89, cantharidic acid, or dimethylsulfoxide vehicle was added, and the cells were incubated in 5.5 mM (□) or 27.5 mM (▪) glucose for 12 h.
Rat primary cultured hepatocytes were transfected with wild type (WT)-ChREBP, S626A, S626D, T666A, or T666D. After transfection, the cells were incubated in 5.5 mM (□) or 27.5 mM (▪) glucose for 12 h. […] Rat primary cultured hepatocytes were transfected with wild type (WT)-ChREBP, S196A+S626A, or S196A+T666A. After transfection, cells were incubated under 5.5 mM (□) or 27.5 mM (▪) glucose, and cAMP was added both low and high glucose.

ChREBP [4] = experiment: Intraperitoneal db-cAMP in rats, gel shift of liver nuclear extracts; assay type: in vivo, rat; details: rats fed high carbohydrate diet, db-cAMP 1 mmol/kg intraperitoneally
Method: Treatment of Rats with Dibutyryl (db)-cAMP and Nuclear Extract Preparation—Male Sprague-Dawley rats weighting 250 g were used in all experiments. After 48 h starvation, the rats were fed a high carbohydrate diet and db-cAMP (1 mmol/kg) was injected intraperitoneally. The rats were sacrificed 10 min and 30 min after injection and nuclear extracts were prepared immediately from rat liver as described in Example 1. Gel shifts were performed as described in Example 2.

[5] = target: T2, ChREBP, purified from rat liver (Rattus norvegicus, UniProt Q8VIP2 Q8VIP2:1-865); experiment: pulldown; DNA-affinity column; eluted at 0.8 M KCl
T2 sequence: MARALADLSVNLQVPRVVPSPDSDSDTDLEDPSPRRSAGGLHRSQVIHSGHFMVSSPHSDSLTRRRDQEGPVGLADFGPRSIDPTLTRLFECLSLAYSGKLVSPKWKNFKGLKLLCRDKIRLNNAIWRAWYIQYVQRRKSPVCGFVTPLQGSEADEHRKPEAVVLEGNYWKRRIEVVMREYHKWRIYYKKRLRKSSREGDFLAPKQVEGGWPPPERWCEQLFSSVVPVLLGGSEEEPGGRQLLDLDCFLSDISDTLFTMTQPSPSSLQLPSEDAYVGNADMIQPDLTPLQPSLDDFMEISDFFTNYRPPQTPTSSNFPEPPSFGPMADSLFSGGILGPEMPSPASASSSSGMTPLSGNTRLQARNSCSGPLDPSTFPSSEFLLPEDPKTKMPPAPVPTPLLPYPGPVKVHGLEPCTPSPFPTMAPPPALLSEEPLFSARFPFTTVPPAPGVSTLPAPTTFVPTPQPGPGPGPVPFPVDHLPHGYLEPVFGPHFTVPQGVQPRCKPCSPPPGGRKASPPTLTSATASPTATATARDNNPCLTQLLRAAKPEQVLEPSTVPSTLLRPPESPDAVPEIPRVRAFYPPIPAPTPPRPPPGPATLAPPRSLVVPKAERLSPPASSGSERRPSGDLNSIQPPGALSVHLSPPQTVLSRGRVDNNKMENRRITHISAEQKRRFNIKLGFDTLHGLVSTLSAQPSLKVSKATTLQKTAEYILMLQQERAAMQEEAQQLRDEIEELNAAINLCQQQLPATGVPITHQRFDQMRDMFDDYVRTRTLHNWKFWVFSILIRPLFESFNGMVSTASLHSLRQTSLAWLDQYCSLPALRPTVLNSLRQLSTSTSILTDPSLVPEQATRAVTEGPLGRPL

[6] = target: T2, ChREBP, purified from rat liver; experiment: EMSA; purified ChREBP; details: label: 32P
Method: Purified ChREBP was incubated with PKA and/or PP2A in vitro and measured by gel-shift analysis with the [³²P]-radiolabeled WT oligonucleotide. Purified ChREBP was incubated for 20 min with ATP (1 mM), PKA (0.1 U/μl), 0.2 U/μl PKI, 0.025 U/μl PP2A and the PP2A inhibitor, okadaic acid (10 nM).

PP2A: catalytic subunit of protein phosphatase 2A
DNA-binding activity of 32P-phosphorylated bHLH/ZIP domain on incubation with PP2A [1]: complete recovering of the activity | DNA-binding activity of inactivated ChREBP (ChREBP [2]): restored

CCCCCCCC(=O)O [octanoate]
increase of AMPK activity compared to absence of fatty acid (AMPK): about two-fold | AMP (cultured hepatocytes): 942 ± 106 nmol/g cells | AMP/ATP ratio (cultured hepatocytes): 0.30 ± 0.03

catalytic subunit of cAMP-dependent protein kinase (PKA)
radiolabeling of ChREBP with γ-[32P]-ATP (SDS-PAGE) [3]: leads to radiolabeling of ChREBP

CCCC(=O)Nc1ncnc2c1ncn2[C@@H]1O[C@@H]2COP(=O)(O)O[C@H]2[C@H]1OC(=O)CCC [db-cAMP, Dibutyryl (db)-cAMP]
export of GFP-ChREBP from nuclei to cytoplasm (GFP-fused ChREBP): not exported | transcriptional activity of S196A+T666A ChREBP double mutant (L-PK gene): not inhibited | time after injection to inactivation of ChREBP DNA-binding activity in liver nuclear extracts (ChREBP [4]): ≤ 10 min

B1: DNA-affinity column ChRE (dsDNA)
DNA 1: CATGGGCGCACGGGGCACTCCCGTGGTTCC
DNA 2: GGAACCACGGGAGTGCCCCGTGCGCCCATG
binding result [5]: binds

B2: LPK ChRE WT (dsDNA)
DNA 1: GGGCGCACGGGGCACTCCCGTGGTTCC
DNA 2: GGAACCACGGGAGTGCCCCGTGCGCCC
binding result [6]: binds
